Measurements reported in US20240091359A1, “NOVEL ESR1 DERIVED PEPTIDES AND USES THEREOF FOR NEOANTIGEN THERAPY” (H. LEE MOFFITT CANCER CENTER AND RESEARCH INSTITUTE, INC., priority 2021, published 2024).

Tested on: CD4+ Th1 cells
Experiment: ER peptide library screening: IFN-γ ELISA of supernatants from iDC-CD4+ Th1 co-culture after priming with peptide-pulsed DC1
Assay type: cell-based, human
Settings: for native ER peptide screening result (immunogenic epitope / candidate sequence): cumulative responses from donors tested, native ER library of 117 peptides (FIG. 7); for donors with significant increase in IFN-γ production / immunogenicity (IFN-γ production): four healthy normal donor samples; for immunogenicity (IFN-γ production): mutated peptides and native ER peptides side by side (FIG. 9-13, 20); for increase in IFN-γ production: native ER individual peptide screening, second sample (FIG. 6C, 6D)
Source text: 176. We then take this peptide library and proceed with the screening process. Briefly, human autologous monocyte fractions from healthy donors and breast cancer patients are pulsed with class II peptides and are rapidly matured to a type-1 polarized dendritic cell (DC1) through the sequential addition of rhGM-CSF, rhIL-4, rhIFN-γ and LPS. Mature-peptide pulsed DC1's are then put in co-culture with autologous naïve T-cells, where these T-cells are presented with peptides via MHC-II molecules and are polarized to a type-1 effector CD4+ cell through DC1 secretion of IL-12. Additionally, IL-2 is added to the coculture to induce the rapid expansion of CD4+ Th1 cells, after 8-10 days of coculture, the now primed CD4+ Th1 cells are re-stimulated with immature dendritic cells presenting the matching class II peptide or an irrelevant class II negative control. Supernatants from the iDC-CD4+ Th1 co-culture are then screened through IFN-γ ELISA to measure Th1-response. An antigen specific response is considered to be significant as approximately a 2-fold increase in IFN-γ production (pg/mL) compared to the control. The final in vitro screening step is then to do a reverse sensitization. Where the primed CD4 T cells are re-stimulated with immature dendritic cells pulsed with the full tumor antigen in question, or the full protein. This step is important to determine if the identified immunogenic epitope can be recognized by T-cells primed to only a small amino acid sequence apart of the much larger protein.
178. The screening process (FIG. 3) of 10-5-1 is repeated on different samples as well to confirm commonalities in increased responses and reproducibility, ensuring that a response was not donor specific to keep track of common increased responses across donors and ultimately identify those reproducibly immunogenic peptides. The screening procedure follows the same experimental steps as mentioned before, and flows through a successive screening strategy, examining pools of 10 peptides, followed by pools of 5-peptides and eventually as individual peptides. This process allows for the rapid identification of the areas in the full protein sequence that may contain immunogenic peptides, rather than screening all peptides individually.
185. From the 11 noted point mutations, we cross matched their locations within the class II sequences of the ER peptide library. From this, each point mutation was represented in three peptide sequences due to the 10-amino acid overlap between adjacent sequences within the library. This overlap helps to account for binding affinity within the MHC II open binding groove (Table 3) 186. From the 11 mutations, a peptide library of 33 peptides (three sequences per mutation) was created (Table 3). As a comparison, we also screened the corresponding native or un-mutated ER sequences side-by-side to see if the mutation induced an increase in Th1 response compared to the native sequence.

AKAGLTLQQQHQRLA [P99, native ER library peptide]
native ER peptide screening result (immunogenic epitope / candidate sequence): immunogenic
native ER peptide screening result (immunogenic epitope / candidate sequence) (listed as 99): candidate sequences

FLSSTLKSLEEKDHI [P93, native ER library peptide]
donors with significant increase in IFN-γ production: two of four donors

GFVDLTLHDQVHLLE [P74, native ER library peptide]
immunogenicity (IFN-γ production): not immunogenic

HMSNKGMEHLYSMKC [P104, native ER library peptide]
native ER peptide screening result (immunogenic epitope / candidate sequence): immunogenic
native ER peptide screening result (immunogenic epitope / candidate sequence) (listed as 104): candidate sequences

IILLNSGVYTFLSST [P91, native ER library peptide]
donors with significant increase in IFN-γ production: two of four donors

KNVVPLYDLLLEMLD [P107, native ER library peptide]
immunogenicity (IFN-γ production): not immunogenic

LSHIRHMSNKGMEHL [P103, native ER library peptide]
native ER peptide screening result (immunogenic epitope / candidate sequence): immunogenic
native ER peptide screening result (immunogenic epitope / candidate sequence) (listed as 103): candidate sequences
increase in IFN-γ production: almost identical response to 104

LYDLLLEMLDAHRLH [P108, native ER library peptide]
immunogenicity (IFN-γ production): not immunogenic

QQVPYYLENEPSGYT [P26, native ER library peptide]
native ER peptide screening result (immunogenic epitope / candidate sequence): immunogenic
native ER peptide screening result (immunogenic epitope / candidate sequence) (listed as 26): candidate sequences

TLHDQVHLLECAWLE [P75, native ER library peptide]
immunogenicity (IFN-γ production): not immunogenic

YLENEPSGYTVREAG [P27, native ER library peptide]
native ER peptide screening result (immunogenic epitope / candidate sequence): immunogenic
native ER peptide screening result (immunogenic epitope / candidate sequence) (listed as 27): candidate sequences
increase in IFN-γ production: approximately 1.4 fold

YSMKCKNVVPLYDLL [P106, native ER library peptide]
immunogenicity (IFN-γ production): not immunogenic
